Measurements reported in paper PMC6272399, “Anti-Proliferative Effect and Induction of Apoptosis in Androgen-Independent Human Prostate Cancer Cells by 1,5-Bis(2-hydroxyphenyl)-1,4-pentadiene-3-one” (Molecules, 2015).

Assays:
[1] = system: PC-3 cells; assay: MTT cytotoxicity (cell viability) assay, PC-3; format: cell-based, human; conditions: for EC50: Homo sapiens, PC-3, MTT, 72 h treatment, mean ± SD, three experiments, read-out: EC50 Values (µM) of Compounds on Cell Lines PC-3; for dose from which decrease in cell viability is significant: PC-3, MTT, vs untreated; for Selective index (SX) WI-38 vs PC-3: SX = EC50 (WI-38)/EC50 (PC-3) × 100; for Selective index (SX) WRL68 vs PC-3: SX = EC50 (WRL68)/EC50 (PC-3) × 100
Method: (§1) Cell viability was determined by the MTT [3-(4,5-dimethylthiazol-2-yl)-2,5-diphenyltetrazolium bromide] assay, as previously described by Mosmann with modifications. Briefly, cells were detached from the tissue culture flask and pelleted by centrifugation at 1000 rpm for 5 min. Then, the density of the viable cells was counted using a haemocytometer. Cells were then plated in a 96-well flat bottom micro-titer plate (Nunc) at a concentration of 10^4 cells/mL and incubated in a 5% CO2 incubator at 37 °C overnight to allow the cells to adhere to the bottom of the wells. After 24 h, the media was aspirated off and replaced with fresh media containing sample compounds (curcumin and curcumin analogues) of seven different concentrations ranging from 1.56 µM–100 µM and incubated at 37 °C, 5% CO2 for 72 h. Separately, the sample compounds were prepared in a stock solution of 50 mM in 100% dimethyl sulfoxide (DMSO, Molecular Biology Grade, Sigma-Aldrich, St. Louis, MO, USA) and diluted in the culture media to a working concentration of 200 µM. Curcumin, the parent compound which was used as the positive control was also prepared in the similar manner. A two-fold serial dilution was done for each sample in triplicates down the columns of the plate, yielding a final volume and concentration of 100 µL in 0.2% DMSO in each wells. Following treatment, 50 µL MTT solutions (0.5 mg/mL in PBS) was added to each well and incubated for another 4 h at 37 °C in a humidified 5% CO2 incubator. The supernatant was replaced with 100 µL of DMSO and the optical density (OD) was measured at 570/650 nm using a micro-plate ELISA reader (Bio-Rad Laboratories, Hercules, CA, USA). The percentage of viable cells was calculated based on the ratio of the corrected absorbance of sample-treated cells to the corrected absorbance of the control (0.2% DMSO-treated cells) multiplied by 100. The percentage of cell viability was determined as follows: % Cell viability= OD of treated cells /OD of control ×100
(§2) For each compound tested, the EC50 value was generated from the log dose-response curves for each cell line using the Graphpad Prism version 5.04 for Windows (Graphpad Software, La Jolla, CA, USA). […] Cytotoxicity of each tested compound is expressed as the EC50 value. Based on the EC50 values, selectivity index (SX) value was also determined. Selectivity index is a special parameter applied as a selectivity indicator of tested compounds towards cancer cells. The SX represents the ratio of EC50 value obtained in toxicity testing using the normal cell lines to the EC50 values of the toxicity testing of the cancer cells, and then multiplied by 100. All the compounds were assessed for their potential toxicity against normal, non-cancerous cells. […] The SX values were calculated using the following equation: SX = EC50 (normal cells)/EC50 (cancer cells) × 100

[2] = system: DU 145 cells; assay: MTT cytotoxicity (cell viability) assay, DU 145; format: cell-based, human; conditions: for dose from which decrease in cell viability is significant: DU 145, MTT, vs untreated; for EC50: Homo sapiens, DU-145, MTT, 72 h treatment, mean ± SD, three experiments, read-out: EC50 Values (µM) of Compounds on Cell Lines DU 145; for Selective index (SX) WI-38 vs DU 145: SX = EC50 (WI-38)/EC50 (DU 145) × 100; for Selective index (SX) WRL68 vs DU 145: SX = EC50 (WRL68)/EC50 (DU 145) × 100
Method: as §1, §2

[3] = system: WI-38 (human lung fibroblast cells); assay: MTT cytotoxicity assay, normal WI-38; format: cell-based; conditions: normal cell line, 72 h treatment, mean ± SD, read-out: EC50 Values (µM) of Compounds on Cell Lines WI-38
Method: as §1, §2

[4] = system: WRL 68 (human epithelial hepatocytes); assay: MTT cytotoxicity assay, normal WRL 68; format: cell-based; conditions: WRL68, normal cell line, 72 h treatment, mean ± SD, read-out: EC50 Values (µM) of Compounds on Cell Lines WRL-68
Method: as §1, §2

[5] = system: PC-3 cells; assay: BrdU cell proliferation assay, PC-3; format: cell-based, human; conditions: PC-3, BrdU
Method: (§3) The anti-proliferative effects of compound on treated cells, was measured using the BrdU cell proliferation assay kit (Roche Applied Science Diagnostics, Indianapolis, IN, USA) according to the manufacturer’s protocol. The assay was based on incorporation of BrdU during DNA synthesis in proliferating cells. Cells were plated at a concentration of 10^4 cells/mL in a 96-well microtiter plate and incubated overnight. The cells were treated with compounds and curcumin (concentrations ranging from 1.56 µM–100 µM) as positive control for 24, 48 and 72 h respectively. Then, BrdU labeling solution (5 µL, diluted by 1/100 in culture media) was added to each well and incubated for 2 h at 37 °C. The media was replaced with fix/denaturing solution (100 µL) and incubated for 30 min at room temperature. Then, the fix/denaturing solution was removed by tapping off and followed by addition of 50 µL anti-BrdU antibody (50 µL, diluted by 1/100 in dilution buffer) to each well and further incubated for another 90 min at room temperature. Next, the cells were washed 3 times with wash buffer and substrate solution (50 µL) was added to each well. The plate was left for 10 min at room temperature in the dark and the absorbance was measured at a wavelength of 370 nm with a reference wavelength of 492 nm using a micro-plate ELISA reader (Bio-Rad). The percentage of BrdU incorporation was determined based on the ratio of absorbance of sample treated-cells to absorbance of control (untreated cells/DMSO only) multiplied by 100.

[6] = system: DU 145 cells; assay: BrdU cell proliferation assay, DU 145; format: cell-based, human; conditions: DU 145, BrdU
Method: as §3

[7] = system: caspase-3 activity in PC-3 cells; assay: Caspase-3 colorimetric activity assay, PC-3; format: cell-based, human; conditions: PC-3, all time points, inhibitor control
Method: (§4) Caspase-3 activity was determined using the caspase-3 colorimetric assay kit (Sigma-Aldrich) according to manufacturer’s protocol. The assay is based on spectrophotometric detection of p-nitroanilide (pNA) a colored molecule, after its cleavage from the labeled substrate DEVD-pNA by the activity of caspase-3 enzyme. PC-3 and DU 145 cells were treated with MS17 at different concentrations (EC50, 2 × EC50, 3 × EC50) at various time points, 6, 12, 24, 48 and 72 h as appropriate. Following treatment, cells were washed with PBS and suspended with lysis buffer (50 mM HEPES, pH 7.4, 5 mM CHAPS, 5 mM DTT) for 30 min on ice at the concentration of 10^7 cells per 100 µL buffer. Cells were then spun for 30 min at 16,000× g, 4 °C. Protein lysate concentrations were measured based on the Bradford assay method using the Cayman Chemical protein determination kit (Cayman Chemical Company, Ann Arbor, MI, USA) based on the manufacturer’s protocol. Assay was performed on a 96-well micro-titer plate by adding equal amount of protein lysate (~100 µg) into wells containing the assay buffer (20 mM HEPES pH 7.4, 0.1% CHAPS, 5 mM DTT, 2 mM EDTA). Reaction was started by the addition of 10 µL of substrate Ac-DEVD-pNA (2 mM). The effect of Ac-DEVD-CHO, a caspase-3 inhibitor was also studied simultaneously on caspase-3 activity. Ten microliter of the inhibitor (200 µM) was added into the wells containing the protein lysate, assay buffer and the substrate. Caspase-3 activity was measured upon the release of pNA molecule, a pale yellow colored product using the micro-plate ELISA reader (Bio-Rad) at the wavelength of 405 nm. Relative caspase-3 activity was expressed as absorbance of enzyme activity compared with the control (untreated cells/DMSO only) based on the equation below: Relative caspase 3 activity= Absorbance of treated cells /Absorbance of control

[8] = system: caspase-3 activity in DU 145 cells; assay: Caspase-3 colorimetric activity assay, DU 145; format: cell-based, human; conditions: DU 145, all time points, inhibitor control
Method: as §4

Row | Molecule | EC50 [1] [µM] | dose from which decrease in cell viability is significant [1] [µM] | Selective index (SX) WI-38 vs PC-3 [1] | Selective index (SX) WRL68 vs PC-3 [1] | dose from which decrease in cell viability is significant [2] [µM] | EC50 [2] [µM] | Selective index (SX) WI-38 vs DU 145 [2] | Selective index (SX) WRL68 vs DU 145 [2] | EC50 [3] [µM] | EC50 [4] [µM] | concentration from which anti-proliferative activity is significant ([5]; 24 h) [µM] | concentration from which anti-proliferative activity is significant ([5]; 48 h) [µM] | concentration from which anti-proliferative activity is significant ([5]; 72 h) [µM] | concentration from which anti-proliferative activity is significant ([6]; 24 h) [µM] | concentration from which anti-proliferative activity is significant ([6]; 48 h) [µM] | concentration from which anti-proliferative activity is significant ([6]; 72 h) [µM] | relative caspase-3 activity with caspase-3 inhibitor [7] | relative caspase-3 activity with caspase-3 inhibitor [8]
1 | COc1cc(C=CC(=O)C=Cc2ccc(O)c(OC)c2)ccc1O [MS13, 1,5-bis(4-hydroxy-3-methoxyphenyl)-1,4-pentadiene-3-one] | 7.5 ± 0.1 | 6.3 | 124.8 | 115.1 | 12.5 | 7.4 ± 2.6 | 127.2 | 117.3 | 9.4 ± 2.3 | 8.7 ± 0.2 | 12.5 | 12.5 | 12.5 | 12.5 | 12.5 | 25 |  | 
2 | O=C(C=Cc1cccc(F)c1)C=Cc1cccc(F)c1 [MS40E, 1,5-bis(3-fluorophenyl)-1,4-pentadiene-3-one] | 28 ± 7.8 | 50 | 101.4 | 108.3 | 50 | 30.3 ± 1.9 | 93.5 | 100.0 | 28.4 ± 1.7 | 30.3 ± 2 | 50 | 50 | 50 | 50 | 50 | 50 |  | 
3 | Ac-DEVD-CHO [reference compound] |  |  |  |  |  |  |  |  |  |  |  |  |  |  |  |  | relatively low expression levels | relatively low expression levels
4 | O=C1C(=Cc2cccc(F)c2)CCCC1=Cc1cccc(F)c1 [MS49, 2,6-bis(3-fluorobenzylidene)cyclohexanone] | 14.5 ± 1.2 | 12.5 | 134.3 | 90.4 | 25 | 12.3 ± 2.3 | 158.6 | 106.8 | 19.4 ± 7 | 13.1 ± 0.4 | 25 | 25 | 25 | 25 | 25 | 50 |  | 
5 | COc1cc(/C=C/C(=O)CC(=O)/C=C/c2ccc(O)c(OC)c2)ccc1O [Curcumin, diferuloylmethane, reference compound] | 35.9 ± 2.9 | 50 | 77.5 | 79.8 | 50 | 32.5 ± 1.4 | 85.8 | 88.2 | 27.9 ± 2.9 | 28.7 ± 3.2 | 50 | 50 | 50 | 50 | 50 | 50 |  | 
